According to US10183080B2, “Use of single dendritic wedge cell penetrating peptides to facilitate cellular delivery of nanoparticles and nanoparticles carrying cargos” (The Government of the United States of America, as …, priority 2016, dated 2019):
Where no end group is shown, it is not given here.

Tests used:
COS-1 cells [1] = test: Dendritic peptide-mediated delivery of cargo-decorated QDs; format: cell-based, African green monkey
Source text: Lastly, as proof of concept, tests were made of the ability of the dendritic peptides to facilitate QD delivery, when the QDs are decorated with additional “cargo.” For this, following initial attachment of the (Arg9)n peptides to the QDs, they were further assembled with one of three prototypical cargos, a dye-labeled peptide, a drug-labeled peptide and a fluorescent protein. FIG. 8B presents a series of representative images that highlight some of the results achieved using 520 nm emitting QDs functionalized with a zwitterionic compact ligand 4; this ligand was used as it still allows larger proteins access to the QD surface for (His)n-binding unlike PEG which can sterically preclude them. […] Analogous to the data shown above, peptides with higher (Arg9)n dendrimeric branching, use of higher ratios of peptide/QD, and longer delivery times each served to facilitate higher levels of QD-cargo conjugate uptake into the cells (data not shown).
CdSe/ZnS core/shell QDs with emission maxima centered at 550 nm were synthesized as described. These were rendered hydrophilic through cap exchange of the native hydrophobic ligands with polyethylene glycol-(average MW 750 Da) appended dihydrolipoic acid ligands terminating in methoxy groups (DHLA-PEG750-OMe, see FIG. 1B) as described. For cargo delivery experiments, 520 nm emitting QDs functionalized with a zwitterionic compact ligand 4 (CL4) were utilized.
Aliquots of African green monkey kidney fibroblast-like COS-1 cells (CRL-1650) from American Type Culture Collection (ATCC, Manassas, Va., USA) were cultured in Dulbecco's Modified Eagle's Medium (DMEM, ATCC) supplemented with 10% (v/v) heat-inactivated fetal bovine serum (ATCC) and 1% antibiotic/antimycotic at 37° C. in a humidified atmosphere containing 95% air/5% CO2. Aliquots were allowed to adhere to the culture flask and reach 80% confluency, usually within 3 to 4 days. The monolayer was harvested by washing once with PBS, once with calcium/magnesium-free PBS, and incubating the monolayer with trypsin until detachment from the culture flask (usually within 5 min). Cells were seeded at 1-2×10^4 cells/well in Lab-Tek 8-well chambered No. 1 borosilicate cover glass system (Nalge Nunc, Rochester N.Y., USA) that had been previously coated for at least 4 h with fibronectin (5 μg/mL, Life Technologies). Cells were allowed to adhere to the bottom of the wells by further culture overnight at 37° C. in 95% air/5% CO2 air. Following overnight culture, media was removed and washed with 100 μL of 25 mM HEPES supplemented with 1 mM sodium pyruvate. […]
For cargo delivery experiments, mCherry fluorescent protein was prepared as described in the literature. […] Cytotoxicity assays were determined using the Vybrant® MTT Cell Proliferation Assay Kit. […]

COS-1 cells [2] = test: Cellular uptake of QD-dendritic peptide bioconjugates (fluorescence/confocal imaging); format: cell-based, African green monkey; settings: 4 h incubation, 100 nM QD, 5 peptides/QD
Description: COS-1 cells were incubated for 4 h with 150 μL of a 100 nM solution of QDs assembled with the (Arg9)1-16 peptide series at ratio of 5/QD. This ratio was chosen since it represents a value where stochastic assembly events are minimized and correlates with ratios used in the DLS and SPR analysis. Cells were then incubated with the Transferrin Alexa647 endosomal marker for another hour prior to washing and processing which included counterstaining with the DAPI nuclear dye as described in the Methods section. FIGS. 4A through 4G present representative micrographs collected from these samples as projections of confocal stacks and side profiles of the cells. […] The bright yellow PL also observed in these images reflects colocalization of the green QDs with the red Alexa647 marker and confirms that the QDs are located in the endolysosomal system with a primary perinuclear localization as expected following endosomal vesicular uptake.
Kinetics of Poly(Arg)1-16-mediated QD uptake into cells were next evaluated. For this, 150 μL of 100 nM QDs assembled with a ratio of 5 peptides/QD were exposed to COS-1 cells for fixed time periods of 0.5, 1, 4, 8 and 24 h. […] Some delivery trends are visible from a comparison across these images. […] The amount and brightness of QD labeling in the endosomes directly correlates with the increase in the dendritic poly(Arg) display on the QD surface. Additionally, as the cellular exposure time increases, the amount of QD uptake increases proportionally as well. The measured PL intensity per cell from these representative images is plotted in FIG. 5B highlighting the general trends. Although some variability was noted (most likely due to the inherent noisy background found in such gross cellular studies), replicate samples reproduced the same generalized trends of increased poly(Arg)n dendritic branching and increased cellular exposure time leading to increased bioconjugate uptake and PL intensity. […]

[3] = Dynamic light scattering of QD-peptide conjugates; format: physicochemical; settings: DLS; 5 peptides/QD; 50 nM QD, 0.1×PBS pH 7.4, 25° C.
Source text: Dynamic Light Scattering (DLS) analysis was next undertaken to measure the QD-peptide conjugates hydrodynamic diameter (HD) and diffusion coefficients. Based on the values estimated above, assembly ratios of 5 peptides/QD were utilized during these measurements. The QD-(Arg9)1 conjugate's HD increases from the QD only value of 24.3±1 nm to ˜26.7±1.3 nm. HD values for the QD-(Arg9)2-8 conjugates are essentially the same within experimental error with an average value of 30.5±0.5 nm while the QD-(Arg9)16 increases to ˜33 nm. The diffusion coefficients follow the same trend but in an inverse manner from ˜17 to 13 μm^2/s. […] They support the notion that the peptides are attached via the His6 region to the QD surface and that the polyproline regions span through the PEG layer displaying the poly(Arg) motifs on the QD's surface through the surrounding PEG layer as intended in the synthetic design.
Dynamic light scattering (DLS) measurements were carried out using a ZetaSizer NanoSeries equipped with a HeNe laser source (λ=633 nm, Malvern Instruments Ltd, Worcestershire, UK) and analyzed using Dispersion Technology Software (DTS, Malvern Instruments Ltd). 50 nM concentration solutions of QDs were loaded into disposable cells, and data were collected at 25° C. All samples were prepared in 0.1×PBS buffer pH 7.4. For each sample, the autocorrelation function was the average of five runs of 10 s each and then repeated from three to six times. CONTIN analysis was used to determine the number versus hydrodynamic size profiles for the dispersions studied.

Substance | comparative performance in cargo delivery experiments (COS-1 cells [1]; low valencies, short delivery times (data not shown)) | delivery of QDs decorated with ~25 doxorubicin labeled peptides (COS-1 cells [1]; ratio 0.5 peptide/QD, 1 h exposure, cargo MW ~50 kDa, 520 nm CL4 QDs) | delivery of ~30 mCherry per QD (COS-1 cells [1]; ratio 1 peptide/QD, 1 h exposure, cargo MW ~850 kDa, 520 nm CL4 QDs) | delivery of QDs decorated with ~30 Cy5 labeled peptides (COS-1 cells [1]; ratio 1 peptide/QD, 2 h exposure, cargo MW ~100 kDa/QD, 520 nm CL4 QDs) | QD uptake (QD PL in confocal micrographs) (COS-1 cells [2]) | HD (hydrodynamic diameter) [3] [nm]
[RRRRRRRRRFG]8-x-K′K′K′WP9G2H6 [(Arg9)8] | worked best | allowed delivery | allowed delivery | facilitated delivery | most intense QD PL | 30.9 ± 1.4
[RRRRRRRRRFG]-x-hex-hex-WP9G2H6 (RRRRRRRRRFGWPPPPPPPPPGGHHHHHH; not fully specified (residue 11); also: oxime bond (x) between G11 and hexamine spacers) [(Arg9)1, functions as control] | – | – | – | – | no appreciable QD uptake | 26.7 ± 1.3
[RRRRRRRRRFG]16-x-K′K′K′K′WP9G2H6 [(Arg9)16] | – | – | – | – | most intense QD PL | 32.7 ± 4.9
[RRRRRRRRRFG]4-x-K′K′WP9G2H6 [(Arg9)4] | – | – | – | – | – | 30.7 ± 2.0
[(RRRRRRRRRFG)-x-hex-P9G]2-K′WGH6 (peptide RRRRRRRRRFGPPPPPPPPPG; chain KWGHHHHHH) [(Arg9)2, generation 1 dendritic wedge peptide displaying two Arg9 motifs] | – | – | – | – | – | 30 ± 1.4
